Values of other authors in patent US9485971B2, “Fumarylacetoacetate hydrolase (Fah)-deficient pigs and uses thereof” (May Foundation for Medical Education and Research, priority 2010, dated 2016).

System: Fah-deficient mice

Q: Which results are given for `O=C1CCCC(=O)C1C(=O)c1ccc(C(F)(F)F)cc1[N+](=O)[O-]` [NTBC, 2-(2-nitro-4-trifluoro-methyl-benzoyl)-1,3 cyclohexanedione]?
A: phenotype at suboptimal doses of NTBC (Fah-/- mice, suboptimal doses): develop HCC and fibrosis; effect on liver function and neonatal lethality (Fah-deficient mice treated with NTBC): restores liver function and abolishes neonatal lethality; hepatocellular carcinoma penetrance rate (suboptimal NTBC dose of 0.2 mg/kg/day, mice, within the first six months of life): exceeding 50%
